Measured values from ChEMBL document CHEMBL5291721, “A preclinical secondary pharmacology resource illuminates target-adverse drug reaction associations of marketed drugs” (Nat Commun, 2023).

What was measured:
[1] = target: Beta-3 adrenergic receptor (Homo sapiens, UniProt P13945)
[2] = target: T1, 5-hydroxytryptamine receptor 1A (Homo sapiens, UniProt P08908)
T1 sequence (P08908 whole entry): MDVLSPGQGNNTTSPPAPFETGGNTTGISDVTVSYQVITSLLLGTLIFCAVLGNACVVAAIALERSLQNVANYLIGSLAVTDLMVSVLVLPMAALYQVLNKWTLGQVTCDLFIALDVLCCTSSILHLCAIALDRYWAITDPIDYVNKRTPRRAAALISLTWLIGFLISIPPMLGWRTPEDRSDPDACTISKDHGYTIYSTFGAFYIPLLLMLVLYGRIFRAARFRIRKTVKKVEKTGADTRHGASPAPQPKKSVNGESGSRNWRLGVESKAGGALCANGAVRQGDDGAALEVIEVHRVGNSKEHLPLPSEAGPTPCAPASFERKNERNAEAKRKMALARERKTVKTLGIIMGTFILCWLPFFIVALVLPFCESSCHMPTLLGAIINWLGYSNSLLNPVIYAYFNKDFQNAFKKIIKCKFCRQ

Histamine H2 receptor = Histamine H2 receptor (Homo sapiens, UniProt P25021)
Chain of Histamine H2 receptor (P25021 whole entry): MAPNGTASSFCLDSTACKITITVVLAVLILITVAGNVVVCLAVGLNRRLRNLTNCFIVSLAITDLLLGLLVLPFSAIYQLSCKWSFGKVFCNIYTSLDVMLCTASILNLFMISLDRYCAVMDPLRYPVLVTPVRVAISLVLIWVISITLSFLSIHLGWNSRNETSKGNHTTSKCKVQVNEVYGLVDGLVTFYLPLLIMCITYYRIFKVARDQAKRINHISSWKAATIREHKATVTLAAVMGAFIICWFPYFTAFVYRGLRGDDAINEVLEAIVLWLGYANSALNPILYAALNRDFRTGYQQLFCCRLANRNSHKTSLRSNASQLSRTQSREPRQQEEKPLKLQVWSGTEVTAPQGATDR

[3] = target: T2, Neuropeptide Y receptor type 2 (Homo sapiens, UniProt P49146)
T2 sequence (P49146 whole entry): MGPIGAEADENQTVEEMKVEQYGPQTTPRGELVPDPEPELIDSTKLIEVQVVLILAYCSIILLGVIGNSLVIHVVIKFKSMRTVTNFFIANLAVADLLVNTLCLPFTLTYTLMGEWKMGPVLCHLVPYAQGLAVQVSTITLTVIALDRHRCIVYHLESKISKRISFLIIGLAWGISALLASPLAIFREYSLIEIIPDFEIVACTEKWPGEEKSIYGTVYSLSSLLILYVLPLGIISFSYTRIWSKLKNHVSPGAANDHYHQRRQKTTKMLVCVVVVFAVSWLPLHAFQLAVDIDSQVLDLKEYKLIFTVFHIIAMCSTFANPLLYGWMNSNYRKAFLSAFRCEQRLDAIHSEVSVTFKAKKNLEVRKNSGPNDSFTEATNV

B1 bradykinin receptor = target: T3, B1 bradykinin receptor (Homo sapiens, UniProt P46663)
T3 sequence (P46663 whole entry): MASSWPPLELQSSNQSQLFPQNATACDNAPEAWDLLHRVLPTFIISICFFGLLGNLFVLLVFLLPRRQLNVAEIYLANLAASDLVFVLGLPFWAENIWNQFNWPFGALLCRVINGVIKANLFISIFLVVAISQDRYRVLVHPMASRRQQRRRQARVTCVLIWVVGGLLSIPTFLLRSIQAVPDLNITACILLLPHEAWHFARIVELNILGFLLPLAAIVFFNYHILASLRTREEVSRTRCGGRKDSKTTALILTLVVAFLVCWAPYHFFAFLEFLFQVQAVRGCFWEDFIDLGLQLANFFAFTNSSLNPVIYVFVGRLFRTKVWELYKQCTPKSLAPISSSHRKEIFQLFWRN

Substance-P receptor = Substance-P receptor (Homo sapiens, UniProt P25103)
Chain of Substance-P receptor (P25103 whole entry): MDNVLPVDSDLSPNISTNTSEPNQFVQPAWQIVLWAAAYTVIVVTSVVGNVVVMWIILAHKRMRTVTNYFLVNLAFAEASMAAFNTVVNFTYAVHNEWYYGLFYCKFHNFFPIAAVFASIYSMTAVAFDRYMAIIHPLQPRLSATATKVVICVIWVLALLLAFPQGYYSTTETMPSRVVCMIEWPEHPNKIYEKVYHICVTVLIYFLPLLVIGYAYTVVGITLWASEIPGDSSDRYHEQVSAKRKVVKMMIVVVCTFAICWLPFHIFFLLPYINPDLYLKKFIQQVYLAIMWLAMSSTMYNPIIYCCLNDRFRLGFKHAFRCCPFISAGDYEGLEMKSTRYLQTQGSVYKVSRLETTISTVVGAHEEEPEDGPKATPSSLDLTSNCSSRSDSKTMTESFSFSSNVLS

[4] = target: T4, Alpha-2A adrenergic receptor (Homo sapiens, UniProt P08913)
T4 sequence (P08913 whole entry): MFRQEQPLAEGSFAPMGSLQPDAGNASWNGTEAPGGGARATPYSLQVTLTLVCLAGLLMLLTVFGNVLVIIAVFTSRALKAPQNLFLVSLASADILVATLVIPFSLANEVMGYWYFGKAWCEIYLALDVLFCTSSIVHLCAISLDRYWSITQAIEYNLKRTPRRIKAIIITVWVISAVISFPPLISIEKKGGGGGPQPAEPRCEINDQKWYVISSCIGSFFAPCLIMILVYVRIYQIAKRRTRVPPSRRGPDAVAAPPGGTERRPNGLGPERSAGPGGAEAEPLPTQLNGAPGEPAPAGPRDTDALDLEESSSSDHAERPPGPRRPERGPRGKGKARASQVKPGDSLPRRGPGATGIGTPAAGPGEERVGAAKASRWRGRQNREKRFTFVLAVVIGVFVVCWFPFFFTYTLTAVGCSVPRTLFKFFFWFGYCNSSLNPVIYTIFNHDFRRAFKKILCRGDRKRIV

[5] = target: Neurotensin receptor type 1 (Homo sapiens, UniProt P30989)
Chain of Neurotensin receptor type 1 (P30989 whole entry): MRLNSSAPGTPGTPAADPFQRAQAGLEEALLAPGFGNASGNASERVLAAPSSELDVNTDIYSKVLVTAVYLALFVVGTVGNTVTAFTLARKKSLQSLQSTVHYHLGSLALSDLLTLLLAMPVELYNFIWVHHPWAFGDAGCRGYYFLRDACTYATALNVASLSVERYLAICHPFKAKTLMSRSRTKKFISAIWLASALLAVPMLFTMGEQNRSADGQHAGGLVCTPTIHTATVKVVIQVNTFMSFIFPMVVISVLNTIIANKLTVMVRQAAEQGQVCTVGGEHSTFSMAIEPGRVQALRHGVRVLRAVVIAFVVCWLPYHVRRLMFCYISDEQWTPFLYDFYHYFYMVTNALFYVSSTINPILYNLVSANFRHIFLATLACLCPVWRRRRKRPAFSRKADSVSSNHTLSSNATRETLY

[6] = target: T5, Muscarinic acetylcholine receptor M1 (Homo sapiens, UniProt P11229); type: functional, cell-based
T5 sequence (P11229 whole entry): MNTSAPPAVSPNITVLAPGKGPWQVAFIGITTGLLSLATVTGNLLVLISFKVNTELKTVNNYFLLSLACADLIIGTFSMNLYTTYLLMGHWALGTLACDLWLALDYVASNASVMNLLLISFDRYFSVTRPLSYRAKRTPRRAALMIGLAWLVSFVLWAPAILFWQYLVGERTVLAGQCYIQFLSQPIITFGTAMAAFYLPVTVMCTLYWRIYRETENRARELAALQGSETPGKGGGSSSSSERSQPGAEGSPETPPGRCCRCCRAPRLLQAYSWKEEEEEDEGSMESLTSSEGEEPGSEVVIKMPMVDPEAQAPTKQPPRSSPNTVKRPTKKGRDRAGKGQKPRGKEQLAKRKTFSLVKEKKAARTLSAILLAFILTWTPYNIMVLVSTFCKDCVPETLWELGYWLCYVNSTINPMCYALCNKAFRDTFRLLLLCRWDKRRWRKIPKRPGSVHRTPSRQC

[7] = target: 5-hydroxytryptamine receptor 7 (Homo sapiens, UniProt P34969)
Chain of 5-hydroxytryptamine receptor 7 (P34969 whole entry): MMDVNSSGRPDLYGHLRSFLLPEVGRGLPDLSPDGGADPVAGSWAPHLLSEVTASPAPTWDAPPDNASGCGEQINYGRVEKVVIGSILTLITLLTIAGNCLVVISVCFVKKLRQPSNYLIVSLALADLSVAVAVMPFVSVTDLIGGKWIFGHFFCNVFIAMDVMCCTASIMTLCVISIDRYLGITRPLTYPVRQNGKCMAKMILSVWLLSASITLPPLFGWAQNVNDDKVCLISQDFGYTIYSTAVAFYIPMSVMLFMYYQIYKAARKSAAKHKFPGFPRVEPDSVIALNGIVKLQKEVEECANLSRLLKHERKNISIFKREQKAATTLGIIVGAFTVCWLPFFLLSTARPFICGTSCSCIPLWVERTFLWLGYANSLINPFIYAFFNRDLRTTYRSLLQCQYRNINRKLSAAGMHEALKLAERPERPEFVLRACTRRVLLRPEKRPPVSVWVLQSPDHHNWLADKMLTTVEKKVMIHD

[8] = target: T6, Muscarinic acetylcholine receptor M2 (Homo sapiens, UniProt P08172)
T6 sequence (P08172 whole entry): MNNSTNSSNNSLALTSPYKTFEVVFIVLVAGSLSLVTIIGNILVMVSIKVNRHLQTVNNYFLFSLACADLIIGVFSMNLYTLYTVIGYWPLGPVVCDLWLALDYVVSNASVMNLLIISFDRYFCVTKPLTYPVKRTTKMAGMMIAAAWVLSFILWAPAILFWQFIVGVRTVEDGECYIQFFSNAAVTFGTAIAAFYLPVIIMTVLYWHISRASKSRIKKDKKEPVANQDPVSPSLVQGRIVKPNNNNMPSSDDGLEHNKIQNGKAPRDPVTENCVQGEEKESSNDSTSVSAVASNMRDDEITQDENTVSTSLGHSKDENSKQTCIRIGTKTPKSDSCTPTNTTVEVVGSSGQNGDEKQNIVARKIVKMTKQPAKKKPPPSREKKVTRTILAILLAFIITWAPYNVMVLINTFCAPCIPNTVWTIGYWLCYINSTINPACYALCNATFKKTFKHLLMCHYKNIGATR
Further: assay procedure not described here.

Chain of Beta-3 adrenergic receptor (P13945 whole entry): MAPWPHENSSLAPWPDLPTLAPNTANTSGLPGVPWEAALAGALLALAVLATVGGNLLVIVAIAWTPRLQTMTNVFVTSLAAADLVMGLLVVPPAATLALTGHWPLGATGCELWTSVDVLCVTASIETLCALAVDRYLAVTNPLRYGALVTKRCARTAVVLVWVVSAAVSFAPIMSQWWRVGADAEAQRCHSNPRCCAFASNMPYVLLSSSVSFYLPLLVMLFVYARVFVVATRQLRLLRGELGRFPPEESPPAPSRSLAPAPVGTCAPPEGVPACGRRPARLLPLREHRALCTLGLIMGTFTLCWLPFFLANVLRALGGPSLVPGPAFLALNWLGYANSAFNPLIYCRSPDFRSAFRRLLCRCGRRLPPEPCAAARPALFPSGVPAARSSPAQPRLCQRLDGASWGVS

Structure (SMILES) | AC50 [1] | AC50 [2] | AC50 (Histamine H2 receptor) | AC50 [3] | AC50 (B1 bradykinin receptor) | AC50 (Substance-P receptor) | AC50 [4] | AC50 [5] | AC50 [6] | AC50 [7] | AC50 [8]
CCN(CC)CCNC(=O)c1cc(Cl)c(N)cc1OC [METOCLOPRAMIDE] | > 30 µM | > 10 µM | > 10 µM | > 30 µM | > 30 µM | > 10 µM | 7.32 µM | > 30 µM | – | – | –
O=C1c2ccccc2C(=O)C1C(=O)C(c1ccccc1)c1ccccc1 [DIPHENADIONE] | – | – | – | – | – | – | – | – | > 3 µM | – | –
CCO/N=C(\C(=O)N[C@@H]1C(=O)N2C(C(=O)[O-])=C(Sc3nc(-c4cc[n+](C)cc4)cs3)CS[C@H]12)c1nsc(N)n1 [CEFTAROLINE] | – | – | – | – | – | – | – | – | > 30 µM | – | –
CN(C)CCCN1c2ccccc2CCc2ccc(Cl)cc21 [CLOMIPRAMINE] | – | > 10 µM | – | – | – | – | > 10 µM | – | – | – | –
CCc1ccc(CCOc2ccc(CC3SC(=O)NC3=O)cc2)nc1 (configuration not stated) [PIOGLITAZONE] | > 30 µM | > 10 µM | > 10 µM | > 30 µM | > 30 µM | > 10 µM | 7.05 µM | > 30 µM | – | > 10 µM | –
CCC(=O)c1c(O)cc(O)cc1O [FLOPROPIONE] | – | – | – | – | – | – | – | – | > 30 µM | – | –
CC(=O)OC[C@H]1O[C@@H](n2ccc(=O)[nH]c2=O)[C@H](OC(C)=O)[C@@H]1OC(C)=O [URIDINE TRIACETATE] | – | – | – | – | – | – | – | – | > 30 µM | – | –
CC(N/C(=N\C#N)Nc1ccncc1)C(C)(C)C (configuration not stated) [PINACIDIL ANHYDROUS] | – | – | – | – | – | – | – | – | > 30 µM | – | –
CC(N)Cc1ccccc1 (configuration not stated) [AMPHETAMINE] | > 30 µM | > 10 µM | – | > 30 µM | > 30 µM | – | – | > 30 µM | – | – | > 10 µM
CCc1nn(CCCN2CCN(c3cccc(Cl)c3)CC2)c(=O)n1CCOc1ccccc1 [NEFAZODONE] | 9.5 µM | 0.254 µM | – | > 30 µM | > 30 µM | 2.45 µM | – | > 30 µM | – | 0.237 µM | –
O=C1[C@H](CC[C@H](O)c2ccc(F)cc2)[C@@H](c2ccc(O)cc2)N1c1ccc(F)cc1 [EZETIMIBE] | – | – | – | – | – | – | – | – | 4.55 µM | – | –
Cc1ccc(O)c2ncccc12 [TILIQUINOL] | – | – | – | – | – | – | – | – | > 30 µM | – | –
CCC[C@@H]1C[C@@H](C(=O)N[C@@H]([C@H]2O[C@H](SC)[C@H](O)[C@@H](O)[C@H]2O)[C@H](C)Cl)N(C)C1 [CLINDAMYCIN] | > 30 µM | > 10 µM | > 10 µM | > 30 µM | > 30 µM | > 10 µM | > 10 µM | > 30 µM | – | – | > 10 µM
OCCN1CCN(CCCN2c3ccccc3C=Cc3ccccc32)CC1 [OPIPRAMOL] | – | – | – | – | – | – | – | – | 25.7 µM | – | –
NC(=O)c1cnccn1 [PYRAZINAMIDE] | > 30 µM | > 10 µM | > 10 µM | > 30 µM | > 30 µM | – | > 10 µM | > 30 µM | – | > 10 µM | –
CC(C(=O)O)c1ccc(N2CC=CC2)c(Cl)c1 (configuration not stated) [PIRPROFEN] | > 30 µM | > 10 µM | > 10 µM | > 30 µM | > 30 µM | > 10 µM | > 10 µM | > 30 µM | 28.7 µM | – | > 10 µM
CCOC(=O)c1ccc(O)cc1 [ETHYLPARABEN] | – | – | – | – | – | – | – | – | > 30 µM | – | –
C[N+](C)(C)CCCCCCCCCC[N+](C)(C)C [DECAMETHONIUM] | – | – | – | – | – | – | – | – | > 30 µM | – | –
NC1=NC(=O)C(c2ccccc2)O1 (configuration not stated) [PEMOLINE] | – | > 10 µM | – | – | – | – | – | – | – | – | –
COC(=O)[C@@H]1CC2=CC(=O)CC[C@]2(C)[C@@]23O[C@@H]2C[C@@]2(C)[C@@H](CC[C@@]24CCC(=O)O4)[C@H]13 [EPLERENONE] | > 30 µM | > 10 µM | > 10 µM | > 30 µM | > 30 µM | – | > 10 µM | > 30 µM | – | – | > 10 µM
O=C(CCCCCCC(=O)Nc1ccccc1)NO [VORINOSTAT] | – | > 10 µM | > 10 µM | > 10 µM | > 10 µM | > 10 µM | > 10 µM | – | – | > 10 µM | > 10 µM
CN(CCOc1ccc(NS(C)(=O)=O)cc1)CCc1ccc(NS(C)(=O)=O)cc1 [DOFETILIDE] | > 30 µM | > 10 µM | > 10 µM | > 30 µM | > 30 µM | > 10 µM | > 10 µM | > 30 µM | > 30 µM | – | > 10 µM
COc1cc(Nc2c(C#N)cnc3cc(OCCCN4CCN(C)CC4)c(OC)cc23)c(Cl)cc1Cl [BOSUTINIB] | 16.8 µM | > 10 µM | – | > 30 µM | > 30 µM | 8 µM | 6.01 µM | > 30 µM | > 3 µM | > 10 µM | 6.04 µM
CC(=O)Oc1c(C)cc(OCC(O)CNC(C)C)c(C)c1C (configuration not stated) [METIPRANOLOL] | – | – | – | – | – | – | – | – | > 30 µM | – | –
Oc1ncnc2[nH]ncc12 [ALLOPURINOL] | > 30 µM | > 10 µM | > 10 µM | > 30 µM | > 30 µM | > 10 µM | > 10 µM | > 30 µM | – | – | > 10 µM
CN(C)C(=O)Oc1ccc[n+](C)c1 [PYRIDOSTIGMINE] | – | – | – | – | – | – | – | – | > 30 µM | – | –
C(=N\NC1=NCCN1)/c1c2ccccc2c(/C=N/NC2=NCCN2)c2ccccc12 [BISANTRENE] | – | – | – | – | – | – | – | – | 6.37 µM | – | –
COc1cc2c(cc1OC)C(=O)C(CC1CCN(Cc3ccccc3)CC1)C2 (configuration not stated) [DONEPEZIL] | > 30 µM | – | > 10 µM | > 30 µM | > 30 µM | > 10 µM | 10.4 µM | > 30 µM | 5.32 µM | > 10 µM | –
